Experimental data: patent publication US12673035B2, “Solid dosage forms of elafibranor” (Genfit, priority 2023, dated 2026)

Tests used:
[1] = Particle size analysis of jet-milled (micronized) elafibranor; type: physicochemical
Excerpt: Particle size of agglomeration was identified as playing a primary role in the dissolution and variability in the blend uniformity and content uniformity of tablet formulations. In order to obtain suitable particle size distribution, milling of elafibranor was investigated. The micronisation process acts to accelerate grains of powder, with an air jet, in a tornado like flow path within the micronisation chamber of the mill. As particles travel in the circular path, they collide, which leads to a reduction in particle size. Centrifugal force directs larger particles to the outside of the chamber and smaller particles are concentrated in the centre of the mill where they can be transferred to the outlet when the appropriate particle size has been reached.
The micronisation process of elafibranor has been performed with the following jet-mill equipment: Microniser Alpine 200 Aeroplex in ambient conditions of temperature and hygrometry.
The feeder delivers the dosage to the microniser by two screws. This system allows a regularity of the flow. A disposable sleeve is used to separate the air and the micronised product at the end of the microniser.
The micronised elafibranor powder is then collected into polyethylene bags and the obtained weight at the end of the micronisation operation has been recorded.
acceptance criteria: D50%≤5 μm and D90%≤15 μm

rat = assay: Acute toxicity study, single oral doses, rat; type: in vivo
Description: (§1) According to acute toxicity study results, it can be concluded that elafibranor is extremely safe when administered as single oral doses in rat and mouse, since no sign of toxicity was detected up to the dose of 1000 mg/kg.

[2] = test system: patients with PBC and inadequate response to Ursodeoxycholic acid (UDCA); assay: Phase 2 double-blind, randomized, placebo-controlled trial in PBC; type: in vivo, human; conditions: for mean relative change from baseline to endpoint in serum ALP / median relative change from baseline to endpoint in the pruritus VAS / treatment effect estimate vs placebo, serum ALP (supportive analysis, ANCOVA with baseline ALP as covariate) / mean relative change from baseline to endpoint in GGT / treatment effect estimate vs placebo, GGT (non-parametric randomization-based ANCOVA) / response rates defined by at least 10%, 20% and 40% decrease in ALP from baseline to endpoint, compared to placebo: 12 weeks; for mean relative change from baseline to endpoint in GGT / treatment effect estimate vs placebo, GGT (non-parametric randomization-based ANCOVA) / response rates defined by at least 10%, 20% and 40% decrease in ALP from baseline to endpoint, compared to placebo: mITT set; for response rates defined by at least 10%, 20% and 40% decrease in ALP from baseline to endpoint, compared to placebo: Fishers exact test, p<0.001; for response rate as defined by Paris I risk scores (ALP≤3×ULN, AST≤2×ULN, bilirubin within normal limits) / response rate as defined by Paris II risk scores (ALP≤1.5×ULN, AST≤1.5×ULN, bilirubin within normal limits) / response rate as defined by Toronto I risk scores (ALP≤1.67×ULN) / response rate as defined by Toronto II risk scores (ALP≤1.75×ULN): baseline to endpoint
Description: This example describes a double-blind, randomized, placebo-controlled trial to evaluate the efficacy and safety of elafibranor 80 mg and 120 mg once daily (qd) versus placebo in a PBC population.
The study included a screening visit, followed by 12 weeks of double-blind treatment period. Patients attended study visits at randomization, Week 2, 4, 8, 12 during the treatment period.
(§2) Elafibranor was administered per os, once daily at 80 mg or 120 mg, for 12 weeks, in the form of tablets of the invention (Formulations 4 and 3). The elafibranor 120 mg and 80 mg tablets contained elafibranor (active ingredient) and excipients (microcrystalline cellulose, povidone, croscarmellose, anhydrous colloidal silica, magnesium stearate, Opadry® II white). The white tablets were provided to the participants in aluminum blisters.
The primary objectives were to compare the effect of daily oral administration of elafibranor 80 mg and 120 mg on changes in serum alkaline phosphatase (ALP) to that of placebo in patients with PBC and inadequate response to Ursodeoxycholic acid (UDCA).
The primary endpoint of the study was to evaluate the efficacy of elafibranor 80 mg or 120 mg with respect to relative change from baseline in serum ALP levels compared to placebo.
Absolute changes in serum ALP levels were monitored from Baseline to week 2, 4, 8 and 12.
The treatment effect estimate was −52.0% (95% CI [−62.5; −41.5]) for the elafibranor 80 mg treatment group and −43.9% (95% CI [−55.7; −32.1]) for the elafibranor 120 mg treatment group.
The primary efficacy supportive analysis conducted using an ANCOVA with baseline ALP as a covariate was consistent with the primary efficacy analysis. The treatment effect estimate was −51.4% (95% CI [−63.3; −39.5]) for the elafibranor 80 mg treatment group and −43.9% (95% CI [−55.8; −31.9]) for the elafibranor 120 mg treatment group.
The percentage of patients was calculated who met the definition of PBC responder criteria applying the Paris I, Toronto I, Toronto II, […], Mayo II, and Barcelona disease prognostic risk criteria. Paris I risk scores were defined as ALP≤3×ULN and AST≤2×ULN and bilirubin within normal limits.
Paris II risk scores were defined as ALP≤1.5×ULN and AST≤1.5×ULN and bilirubin within normal limits.
Toronto I risk scores were defined as ALP≤1.67×ULN.
Toronto II risk scores were defined as ALP≤1.75×ULN.
Considering that pruritus is a preeminent adverse event in subjects with PBC, assessment of pruritus was also considered. More specifically, the change from baseline in pruritus (through 5D-itch scale (measuring the degree, duration, direction [improvement or worsening], disability [effect on daily activities], and distribution of itching) and visual analogue scale for pruritus (VAS).
The 5D-itch scale is a reliable, multidimensional measure of itching that has been validated in patients with chronic pruritus to detect changes over time (Elman S, et al., The 5-D itch scale: a new measure of pruritus. Br J Dermatol. 2010; 162(3):587-593). The VAS is a reliable and validated method of pruritus assessment (Reich A, et al., Visual analogue scale: evaluation of the instrument for the assessment of pruritus. Acta Derm Venereol. 2012; 92(5):497-501).

[3] = test system: patients with PBC with an inadequate response or intolerance to Ursodeoxycholic acid (UDCA); assay: Phase 3 double-blind, randomized, placebo-controlled trial in PBC; type: in vivo, human; conditions: 80 mg once daily
Description: This example describes a double-blind, randomized, placebo-controlled trial to evaluate the efficacy and safety of elafibranor 80 mg once daily (qd) versus placebo in a PBC population.
The study included a screening visit, followed by 52 weeks of double-blind treatment period. Patients attended study visits at randomization, Week 4, 13, 26, and 39 during the treatment period.
as §2, with “80” for “80 mg or 120”, “52” for “12”, “(Formulation 4).” for “(Formulations 4 and 3).”, “elafibranor” for “elafibranor 120 mg and”
The primary objectives were to compare the effect of daily oral administration of elafibranor 80 mg on changes in relevant biochemical indicators of cholestasis or in pruritus to that of placebo in patients with PBC with an inadequate response or intolerance to Ursodeoxycholic acid (UDCA).

[4] = test system: liver function of subjects; assay: Phase 2a clinical studies and Phase 2b clinical trial, liver function; type: in vivo, human; conditions: 80 mg/day for 1 to 3 months (Phase 2a); 80 mg/day and 120 mg/day for 12 months (Phase 2b)
mouse = assay: Acute toxicity study, single oral doses, mouse; type: in vivo
Description: as §1

[5] = test system: patients with PBC with an inadequate response or intolerance to Ursodeoxycholic acid (UDCA); conditions: phase 3 trial NCT04526665, N Engl J Med 2023; cited from earlier work
[6] = mean of clinical batches #1 to #7

CSc1ccc(C(=O)/C=C/c2cc(C)c(OC(C)(C)C(=O)O)c(C)c2)cc1 [micronized elafibranor]
D50% ([1]; clinical batch #1): 2.387 μm | D90% ([1]; clinical batch #1): 6.292 μm | D50% ([1]; clinical batch #2): 3.511 μm | D90% ([1]; clinical batch #2): 10.06 μm | D50% ([1]; clinical batch #3): 2.53 μm | D90% ([1]; clinical batch #3): 6.439 μm | D50% ([1]; clinical batch #4): 4.079 μm | D90% ([1]; clinical batch #4): 10.895 μm | D50% ([1]; clinical batch #5): 2.171 μm | D90% ([1]; clinical batch #5): 6.589 μm | D50% ([1]; clinical batch #6): 2.089 μm | D90% ([1]; clinical batch #6): 6.495 μm | D50% ([1]; clinical batch #7): 2.523 μm | D90% ([1]; clinical batch #7): 6.671 μm | D50% mean [1, 6]: 2.756 μm | D90% mean [1, 6]: 7.634 μm

CSc1ccc(C(=O)/C=C/c2cc(C)c(OC(C)(C)C(=O)O)c(C)c2)cc1 [elafibranor, 2-[2,6-dimethyl-4-[(E)-3-(4-methylsulfanylphenyl)-3-oxoprop-1-enyl]phenoxy]-2-methylpropanoic acid]
dose up to which no sign of toxicity was detected (rat): ≥ 1000 mg/kg | treatment effect estimate vs placebo, relative change from baseline in serum ALP (primary analysis, non-parametric randomization-based ANCOVA) ([2]; 80 mg once daily per os, 12 weeks (Formulation 4 tablets)): −52.0% | mean relative change from baseline to endpoint in serum ALP ([2]; 80 mg once daily): −48.3% | median relative change from baseline to endpoint in the pruritus VAS ([2]; 80 mg once daily): −23.7% | treatment effect estimate vs placebo, serum ALP (supportive analysis, ANCOVA with baseline ALP as covariate) ([2]; 80 mg once daily): −51.4% | mean relative change from baseline to endpoint in GGT ([2]; 80 mg once daily): −37.1% | treatment effect estimate vs placebo, GGT (non-parametric randomization-based ANCOVA) ([2]; 80 mg once daily): −38.6% | response rates defined by at least 10%, 20% and 40% decrease in ALP from baseline to endpoint, compared to placebo ([2]; 80 mg once daily): statistically significantly greater proportion of responders | response rate as defined by Paris I risk scores (ALP≤3×ULN, AST≤2×ULN, bilirubin within normal limits) ([2]; 80 mg once daily): 80.0% | response rate as defined by Paris II risk scores (ALP≤1.5×ULN, AST≤1.5×ULN, bilirubin within normal limits) ([2]; 80 mg once daily): 53.3% | response rate as defined by Toronto I risk scores (ALP≤1.67×ULN) ([2]; 80 mg once daily): 66.7% | response rate as defined by Toronto II risk scores (ALP≤1.75×ULN) ([2]; 80 mg once daily): 66.7% | treatment effect estimate vs placebo, relative change from baseline in serum ALP (primary analysis, non-parametric randomization-based ANCOVA) ([2]; 120 mg once daily per os, 12 weeks (Formulation 3 tablets)): −43.9% | mean relative change from baseline to endpoint in serum ALP ([2]; 120 mg once daily): −40.6% | median relative change from baseline to endpoint in the pruritus VAS ([2]; 120 mg once daily): −49.5% | treatment effect estimate vs placebo, serum ALP (supportive analysis, ANCOVA with baseline ALP as covariate) ([2]; 120 mg once daily): −43.9% | mean relative change from baseline to endpoint in GGT ([2]; 120 mg once daily): −40.0% | treatment effect estimate vs placebo, GGT (non-parametric randomization-based ANCOVA) ([2]; 120 mg once daily): −39.9% | response rates defined by at least 10%, 20% and 40% decrease in ALP from baseline to endpoint, compared to placebo ([2]; 120 mg once daily): statistically significantly greater proportion of responders | response rate as defined by Paris I risk scores (ALP≤3×ULN, AST≤2×ULN, bilirubin within normal limits) ([2]; 120 mg once daily): 78.6% | response rate as defined by Paris II risk scores (ALP≤1.5×ULN, AST≤1.5×ULN, bilirubin within normal limits) ([2]; 120 mg once daily): 50.0% | response rate as defined by Toronto I risk scores (ALP≤1.67×ULN) ([2]; 120 mg once daily): 78.6% | response rate as defined by Toronto II risk scores (ALP≤1.75×ULN) ([2]; 120 mg once daily): 78.6% | biochemical response (primary end point), patients ([3]; 52 weeks (Formulation 4), 55 of 108 patients): 51% | difference vs placebo in biochemical response ([3]; 52 weeks, 95% CI 32 to 57): 47 percentage points | patients in whom the alkaline phosphatase level normalized ([3]; at week 52): 15% | difference vs placebo in alkaline phosphatase normalization ([3]; at week 52, 95% CI 6 to 23): 15 percentage points | difference vs placebo in least-squares mean change on the WI-NRS ([3]; through week 52, moderate-to-severe pruritus, 95% CI −1.99 to 0.42, P=0.20): −0.78 | least-squares mean change from baseline through week 52 on the WI-NRS ([3]; patients with moderate-to-severe pruritus): −1.93 | effects on liver function, relevant to PBC [4]: Beneficial effects | dose up to which no sign of toxicity was detected (mouse): ≥ 1000 mg/kg | improvements in relevant biochemical indicators of cholestasis vs placebo [5]: significantly greater improvements in relevant biochemical indicators of cholestasis than placebo
